Measurements as given in patent US10040810B2, “Derivatives of bisacylphosphinic acid, their preparation and use as photoinitiators” (priority 2012, dated 2018).
Values after ≈ are worked out from the molar mass of the structure shown.

Assay: Solubility in water
Type: physicochemical
Description: 50 mg of the photoinitiator of example 1 is added to 1 ml of distilled water and the suspension stirred at room temperature for 60 minutes. Non-dissolved material is filtered off, dried in vacuo and weighed. The solubility is approximately 5 mg/ml.

solubility at 60 min (thermodynamic from solid, distilled water, room temperature, 60 minutes stirring): ~5000 µg/mL (≈ 14 mM)
solubility in water (in words) (water, preparation of formulation 4c): low solubility
SMILES: Cc1cc(C)c(C(=O)P(=O)(O)C(=O)c2c(C)cc(C)cc2C)c(C)c1 [Example 1, bis(2,4,6-trimethyl-benzoyl)-phosphinic acid]
